Legend:
Assay type in all cases: binding
[1] = target: T1, panel of 442 kinases (Homo sapiens, UniProt P00519, Q252H); conditions: Compound Concentration 10 µM
T1 construct: purchased KINOMEscan
Description: (§1) We assessed the selectivity of members of this scaffold using the KINOMEscan methodology across a near comprehensive panel of 442 kinases [[18,27]].

[2] = target: T2, panel of 442 kinases (Homo sapiens, UniProt Q92918); conditions: Compound Concentration 10 µM
T2 construct: purchased KINOMEscan
Description: as §1

[3] = target: T3, panel of 442 kinases (Homo sapiens, UniProt P29317); conditions: Compound Concentration 10 µM
T3 construct: purchased KINOMEscan
Description: as §1

[4] = target: T4, panel of 442 kinases (Homo sapiens, UniProt Q02763); conditions: kinase TIE2; compound concentration 10 µM
T4 construct: purchased KINOMEscan
Description: as §1

T4 sequence (Q02763 23-1124): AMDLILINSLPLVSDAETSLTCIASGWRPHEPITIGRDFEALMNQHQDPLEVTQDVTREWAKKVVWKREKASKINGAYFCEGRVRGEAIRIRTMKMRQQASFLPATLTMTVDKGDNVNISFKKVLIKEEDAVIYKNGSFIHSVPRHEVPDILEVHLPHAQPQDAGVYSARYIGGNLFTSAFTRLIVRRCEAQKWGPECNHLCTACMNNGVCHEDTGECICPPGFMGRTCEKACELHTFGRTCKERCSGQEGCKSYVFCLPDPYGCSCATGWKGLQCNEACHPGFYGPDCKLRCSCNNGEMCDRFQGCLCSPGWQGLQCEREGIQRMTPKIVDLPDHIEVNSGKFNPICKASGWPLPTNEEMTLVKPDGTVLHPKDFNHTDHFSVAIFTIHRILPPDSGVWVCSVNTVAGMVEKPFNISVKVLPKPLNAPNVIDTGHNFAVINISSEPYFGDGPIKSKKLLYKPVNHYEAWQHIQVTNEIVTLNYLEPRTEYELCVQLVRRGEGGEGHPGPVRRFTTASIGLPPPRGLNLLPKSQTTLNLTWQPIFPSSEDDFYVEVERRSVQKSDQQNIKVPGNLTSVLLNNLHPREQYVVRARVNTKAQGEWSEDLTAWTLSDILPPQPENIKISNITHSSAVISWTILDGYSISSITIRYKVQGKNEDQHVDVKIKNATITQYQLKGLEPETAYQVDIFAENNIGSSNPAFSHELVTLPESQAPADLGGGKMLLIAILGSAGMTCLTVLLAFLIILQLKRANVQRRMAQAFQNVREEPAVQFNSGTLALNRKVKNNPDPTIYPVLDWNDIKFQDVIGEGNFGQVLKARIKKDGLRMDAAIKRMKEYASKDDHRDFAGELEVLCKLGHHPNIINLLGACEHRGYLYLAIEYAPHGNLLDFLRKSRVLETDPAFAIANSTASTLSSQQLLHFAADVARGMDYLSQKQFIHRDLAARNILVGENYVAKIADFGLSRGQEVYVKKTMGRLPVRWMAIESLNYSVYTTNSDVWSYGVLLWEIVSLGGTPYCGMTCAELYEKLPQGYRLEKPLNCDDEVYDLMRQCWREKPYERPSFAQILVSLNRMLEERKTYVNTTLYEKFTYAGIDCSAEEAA
T3 sequence (P29317 24-976): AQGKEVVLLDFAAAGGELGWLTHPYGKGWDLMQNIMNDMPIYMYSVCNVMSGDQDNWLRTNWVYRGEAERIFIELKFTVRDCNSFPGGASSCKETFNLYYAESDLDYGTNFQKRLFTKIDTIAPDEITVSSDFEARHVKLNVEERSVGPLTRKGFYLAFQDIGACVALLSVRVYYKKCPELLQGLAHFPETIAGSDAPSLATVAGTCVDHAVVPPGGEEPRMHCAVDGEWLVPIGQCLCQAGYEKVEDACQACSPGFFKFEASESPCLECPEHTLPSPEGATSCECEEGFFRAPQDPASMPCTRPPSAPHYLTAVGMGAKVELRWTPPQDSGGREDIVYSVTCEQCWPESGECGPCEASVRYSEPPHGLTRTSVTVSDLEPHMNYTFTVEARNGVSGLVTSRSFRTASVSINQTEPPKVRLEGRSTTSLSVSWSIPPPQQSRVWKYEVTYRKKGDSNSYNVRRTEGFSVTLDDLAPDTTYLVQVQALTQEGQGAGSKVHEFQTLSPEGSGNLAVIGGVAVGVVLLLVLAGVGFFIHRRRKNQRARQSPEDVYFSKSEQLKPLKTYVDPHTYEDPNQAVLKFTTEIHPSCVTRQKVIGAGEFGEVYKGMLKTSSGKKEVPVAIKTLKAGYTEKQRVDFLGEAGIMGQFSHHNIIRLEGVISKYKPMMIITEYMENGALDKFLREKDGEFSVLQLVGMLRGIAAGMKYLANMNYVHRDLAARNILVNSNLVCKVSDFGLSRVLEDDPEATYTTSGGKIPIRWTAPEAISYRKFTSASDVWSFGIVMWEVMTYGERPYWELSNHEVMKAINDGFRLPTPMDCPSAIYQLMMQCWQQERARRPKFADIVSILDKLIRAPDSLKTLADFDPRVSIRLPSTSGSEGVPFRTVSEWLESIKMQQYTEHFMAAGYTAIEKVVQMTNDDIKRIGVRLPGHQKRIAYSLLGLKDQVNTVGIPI
T2 sequence (Q92918 whole entry): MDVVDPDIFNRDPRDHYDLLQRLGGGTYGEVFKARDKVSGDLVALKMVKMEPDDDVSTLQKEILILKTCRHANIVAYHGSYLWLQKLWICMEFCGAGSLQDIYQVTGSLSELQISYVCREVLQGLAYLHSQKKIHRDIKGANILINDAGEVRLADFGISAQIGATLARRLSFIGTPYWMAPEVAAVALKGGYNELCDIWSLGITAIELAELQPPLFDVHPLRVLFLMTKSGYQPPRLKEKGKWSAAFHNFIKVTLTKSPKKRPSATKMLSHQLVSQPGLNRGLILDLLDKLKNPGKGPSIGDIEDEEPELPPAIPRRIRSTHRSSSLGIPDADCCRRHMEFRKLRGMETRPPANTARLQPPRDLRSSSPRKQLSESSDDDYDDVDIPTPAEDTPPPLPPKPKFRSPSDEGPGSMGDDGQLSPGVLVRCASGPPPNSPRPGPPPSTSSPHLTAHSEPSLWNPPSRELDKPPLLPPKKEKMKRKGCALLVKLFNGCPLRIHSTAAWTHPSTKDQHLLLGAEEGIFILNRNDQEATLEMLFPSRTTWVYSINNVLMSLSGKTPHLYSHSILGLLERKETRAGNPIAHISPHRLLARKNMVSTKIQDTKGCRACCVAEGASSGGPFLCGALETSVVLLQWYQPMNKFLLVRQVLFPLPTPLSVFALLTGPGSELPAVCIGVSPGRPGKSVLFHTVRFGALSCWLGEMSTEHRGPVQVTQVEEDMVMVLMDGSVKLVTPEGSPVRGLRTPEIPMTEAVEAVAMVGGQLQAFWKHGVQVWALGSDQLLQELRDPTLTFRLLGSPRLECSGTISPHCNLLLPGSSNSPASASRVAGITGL

Row | SMILES | KINOMEscan: ABL1(Q252H)-nonphosphorylated [1] | KINOMEscan: ABL1(Q252H)-phosphorylated [1] | KINOMEscan: HPK1 [2] | KINOMEscan: EPHA2 [3] | % Ctrl, TIE2 [4]
1 | COc1cc(C(=O)N2CCC(N3CCN(C)CC3)CC2)ccc1Nc1ncc2c(n1)N(C)c1ccccc1C(=O)N2C [15 (LRRK2-IN-1)] | 100 | 100 | 100 | 92 | 100 % Ctrl
2 | COc1cc(C(=O)N2CCC(N3CCN(C)CC3)CC2)ccc1Nc1ncc2c(n1)N1CCc3cccc(c31)C(=O)N2C [Compound 24] |  |  |  | 95 | 79 % Ctrl
3 | COc1cc(C(=O)N2CCC(N3CCN(C)CC3)CC2)ccc1Nc1ncc2c(n1)N(C1CCCC1)c1ccccc1C(=O)N2C [Compound 25, 11-cyclopentyl-2-((2-methoxy-4-(4-(4-methylpiperazin-1-yl)piperidine-1-carbonyl)phenyl)amino)-5-methyl-5H-benzo[e]pyrimido[5,4-b][1,4]diazepin-6(11H)-one] | 89 | 83 | 89 | 100 | 100 % Ctrl
4 | CCOc1cc(C(=O)N2CCC(N3CCN(C)CC3)CC2)ccc1Nc1ncc2c(n1)N(C1CCCC1)c1ccccc1C(=O)N2C [Compound 26] | 100 | 100 | 94 | 100 | 100 % Ctrl
